Consider 4 molecules from patent US7438931B2, “Methods and compositions for the treatment of angiogenic diseases” (The Regents of The University of Michigan, priority 1998, dated 2008).

Data set [1] has as its system copper. The note with it: cited from earlier work.
In data set [2] the test system is copper. The note with it: at a cupruresis of 2-3 mg.
For data set [3], the system named is rabbit VX2 carcinoma and rat 9L gliosarcoma. The note with it: implanted intracerebral tumors; cited from earlier work.
The conditions of data set [4]: human, in vivo; cited from earlier work.
For data set [5] the following is noted: cited from earlier work.
Another data set relates to copper absorption. The note with it: cited from earlier work.
[6] abbreviates: therapeutic dose 1,000-2,000 mg/day.

For `NCCNCCNCCN` [trientine], the patients with proteinuria entry in the data set with copper [1] (after several weeks of use) is listed as “about 20 % of patients”. Besides, in the data set with copper [1] (setting [6]), the “cupruresis after the first few weeks of therapy” value was 2 to 3 mg and the “cupruresis, initial” value was 4 to 5 mg. In addition, the negative copper balance with copper [2] was in the range of 1.5 to 2.5 mg/day.

In the case of `CC(C)(S)[C@@H](N)C(=O)O` [penicillamine], the survival entry in data set [3] is reported as “did not show improved survival over untreated controls”. For the same molecule, the “patients developing an initial hypersensitivity syndrome” value in data set [4] is recorded as “a quarter to a third of patients”.

On to `[Mo]` [Mo, molybdenum], for which the efficacy entry in data set [5] (5-20 mg/kg/day of Mo for 4-11 months) is reported as “not effective”. Besides, the toxicity entry in data set [5] (350 to 1400 mg/day (5-20 mg/kg/day) of Mo for 4-11 months) was “without known toxicity”.

Turning to `[Zn]` [zinc], the toxicity entry with copper absorption (150 mg daily, 200 Wilson's disease patients) is listed as “no toxicity at all”. Further, the “copper balance, average” value in the data set on copper absorption (at the two week point) is −0.35 mg daily. In the data set with copper absorption (human, in vivo), the “time to bring urine copper and nonceruloplasmin plasma copper down to subtoxic levels” value is “as long as six months”; the “time to intestinal metallothionein induction and a negative copper balance” value is on record as “approximately two weeks”.
